Experiments:
Experiment in all cases: Weeding effect in post-emergence stage
Format in all cases: in vivo
Conditions in all cases: Dose 15 g/ha; level of fresh weight growth control rate
Echinochloa crusgalli = test system: Echinochloa crusgalli
In short: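 Read-out is growth control rate, counted 3 weeks post-spray and averaged over three repeats. Greenhouse plants at the 2-3 leaf stage received spray-tower application at 500, 250, 125, 60, 30, 15 or 7.5 g/ha, with methyl oleate EC (1.5 liter/ha) and Tween 80 added.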

Digitaria sanguinalis = test system: Digitaria sanguinalis
From the text: (§1) The activity level criteria for plant damage (i.e., growth control rate) are as follows:
(§2) Monocotyledonous and dicotyledonous weed seeds (Descurainia sophia, Capsella bursa-pastoris, Abutilon theophrasti, Galium aparine, Stellaria media, Lithospermum arvense, rorippa indica, Alopecurus aequalis, Alopecurus japonicus, Eleusine indica, Beckmannia syzigachne, Sclerochloa dura, Conyza Canadensis, Phleum paniculatum, Veronica didyma Tenore, Bromus japonicus, Aegilops tauschii, Phalaris arundinacea, Amaranthus retroflexus, Chenopodiaceae, Commelina communis, Sonchus arvensis, Convolvulus arvensis, Cirsium setosum, Bidens tripartita L., Solanum nigrum, Acalypha australis, Digitaria sanguinalis, Echinochloa crusgalli, Setaria viridis, Setaria glauca, Leptochloa chinensis, Monochoria vaginalis, Sagittaria trifolia, Scirpus juncoides, Cyperus rotundus, Cyperus iria, Cyperus difformis, Fimbristylis, Portulaca oleracea, Xanthium sibiricum, Pharbitis nil, etc.) and major crop seeds (wheat, corn, rice, soybean, cotton, oilseed rape, millet, sorghum, potato, sesame, ricinus, etc.) were placed in plastic pots filled with soil, then covered with 0.5-2 cm of soil, allowed to grow in a good greenhouse environment. After 2 weeks of sowing, the test plants were treated in the 2-3 leaf stage. The tested compounds of the present invention were respectively dissolved in acetone, then added with Tween 80 and 1.5 liter/ha of emulsifiable concentrate of methyl oleate as synergist, diluted with a certain amount of water to obtain a solution with a certain concentration, and sprayed with a spray tower onto the plants. After the application, the plants were cultured for 3 weeks in the greenhouse, and then the experimental results of the weeding were counted. […]

Abutilon theophrasti = test system: Abutilon theophrasti
From the text: as §1, §2

Eleusine indica = test system: Eleusine indica
From the text: as §1, §2

Alopecurus japonicus = test system: Alopecurus japonicus
From the text: as §1, §2

Setaria viridis = test system: Setaria viridis
From the text: as §1, §2

Row | Compound | Weeding effect in post-emergence stage, Echinochloa crusgalli (Echinochloa crusgalli) | Weeding effect in post-emergence stage, Digitaria sanguinalis (Digitaria sanguinalis) | Weeding effect in post-emergence stage, Abutilon theophrasti (Abutilon theophrasti) | Weeding effect in post-emergence stage, Eleusine indica (Eleusine indica) | Weeding effect in post-emergence stage, Alopecurus japonicus (Alopecurus japonicus) | Weeding effect in post-emergence stage, Setaria viridis (Setaria viridis)
1 | CCOC(=O)C(C)O/N=C/c1cc(-n2c(=O)cc(C(F)(F)F)n(C)c2=O)c(F)cc1Cl (racemic) [Compound 196] | 5 (Level 5: growth control rate is above 85%) | 5 (Level 5: growth control rate is above 85%) | 5 (Level 5: growth control rate is above 85%) | 5 (Level 5: growth control rate is above 85%) | 5 (Level 5: growth control rate is above 85%) | 5 (Level 5: growth control rate is above 85%)
2 | CCCOC(=O)C(C)O/N=C/c1cc(-n2c(=O)cc(C(F)(F)F)n(C)c2=O)c(F)cc1Cl (racemic) [Compound 198] | 5 (Level 5: growth control rate is above 85%) | 5 (Level 5: growth control rate is above 85%) | 5 (Level 5: growth control rate is above 85%) | 5 (Level 5: growth control rate is above 85%) | 5 (Level 5: growth control rate is above 85%) | 5 (Level 5: growth control rate is above 85%)
3 | CC(C)OC(=O)C(C)O/N=C/c1cc(-n2c(=O)cc(C(F)(F)F)n(C)c2=O)c(F)cc1Cl (racemic) [Compound 199] | 5 (Level 5: growth control rate is above 85%) | 5 (Level 5: growth control rate is above 85%) | 5 (Level 5: growth control rate is above 85%) | 5 (Level 5: growth control rate is above 85%) | 5 (Level 5: growth control rate is above 85%) | 5 (Level 5: growth control rate is above 85%)
4 | CCCCOC(=O)C(C)O/N=C/c1cc(-n2c(=O)cc(C(F)(F)F)n(C)c2=O)c(F)cc1Cl (racemic) [Compound 200] | 5 (Level 5: growth control rate is above 85%) | 5 (Level 5: growth control rate is above 85%) | 5 (Level 5: growth control rate is above 85%) | 5 (Level 5: growth control rate is above 85%) | 5 (Level 5: growth control rate is above 85%) | 5 (Level 5: growth control rate is above 85%)
5 | CC(C)COC(=O)C(C)O/N=C/c1cc(-n2c(=O)cc(C(F)(F)F)n(C)c2=O)c(F)cc1Cl (racemic) [Compound 201] | 5 (Level 5: growth control rate is above 85%) | 5 (Level 5: growth control rate is above 85%) | 5 (Level 5: growth control rate is above 85%) | 5 (Level 5: growth control rate is above 85%) | 5 (Level 5: growth control rate is above 85%) | 5 (Level 5: growth control rate is above 85%)
6 | CC(O/N=C/c1cc(-n2c(=O)cc(C(F)(F)F)n(C)c2=O)c(F)cc1Cl)C(=O)OC(C)(C)C (racemic) [Compound 202] | 5 (Level 5: growth control rate is above 85%) | 5 (Level 5: growth control rate is above 85%) | 5 (Level 5: growth control rate is above 85%) | 5 (Level 5: growth control rate is above 85%) | 5 (Level 5: growth control rate is above 85%) | 5 (Level 5: growth control rate is above 85%)
7 | CCCCCOC(=O)C(C)O/N=C/c1cc(-n2c(=O)cc(C(F)(F)F)n(C)c2=O)c(F)cc1Cl (racemic) [Compound 203] | 5 (Level 5: growth control rate is above 85%) | 5 (Level 5: growth control rate is above 85%) | 5 (Level 5: growth control rate is above 85%) | 5 (Level 5: growth control rate is above 85%) | 5 (Level 5: growth control rate is above 85%) | 5 (Level 5: growth control rate is above 85%)
8 | CCCCCCOC(=O)C(C)O/N=C/c1cc(-n2c(=O)cc(C(F)(F)F)n(C)c2=O)c(F)cc1Cl (racemic) [Compound 204] | 5 (Level 5: growth control rate is above 85%) | 5 (Level 5: growth control rate is above 85%) | 5 (Level 5: growth control rate is above 85%) | 5 (Level 5: growth control rate is above 85%) | 5 (Level 5: growth control rate is above 85%) | 5 (Level 5: growth control rate is above 85%)
9 | CCCCCCCOC(=O)C(C)O/N=C/c1cc(-n2c(=O)cc(C(F)(F)F)n(C)c2=O)c(F)cc1Cl (racemic) [Compound 205] | 5 (Level 5: growth control rate is above 85%) | 5 (Level 5: growth control rate is above 85%) | 5 (Level 5: growth control rate is above 85%) | 5 (Level 5: growth control rate is above 85%) | 5 (Level 5: growth control rate is above 85%) | 5 (Level 5: growth control rate is above 85%)
10 | CCCCCCCCOC(=O)C(C)O/N=C/c1cc(-n2c(=O)cc(C(F)(F)F)n(C)c2=O)c(F)cc1Cl (racemic) [Compound 206] | 5 (Level 5: growth control rate is above 85%) | 5 (Level 5: growth control rate is above 85%) | 5 (Level 5: growth control rate is above 85%) | 5 (Level 5: growth control rate is above 85%) | 5 (Level 5: growth control rate is above 85%) | 5 (Level 5: growth control rate is above 85%)

Reference: patent US20230111310A1, “CARBOXYLIC ACID DERIVATIVE-SUBSTITUTED IMINO ARYL COMPOUND, PREPARATION METHOD THEREFOR, HERBICIDAL COMPOSITION AND USE THEREOF” (Qingdao Kingagroot Chemical Compound Co., Ltd., priority 2020, published 2023)
